Assay [1] has as its target T1, Chymotrypsinogen A (Bos taurus, UniProt P00766). Nature of the assay: Inhibition of alpha-chymotrypsin in bovine pancreas using SPpNA as substrate pretreated with enzyme for 30 mins followed by substrate addition and measured for 12 mins in presence of Triton X-100 by spectrophotometric analysis.
Assay [2] deals with T1, Chymotrypsinogen A. In words: (§1) Inhibition of alpha-chymotrypsin in bovine pancreas using SPpNA as substrate pretreated with enzyme for 30 mins followed by substrate addition and measured for 12 mins by spectrophotometric analysis.
The target of assay [3] is T2, Beta-lactamase (Enterobacter cloacae, UniProt P05364). Nature of the assay: Inhibition of Enterobacter cloacae beta-lactamase incubated for 10 mins followed by nitrocefin substrate challenge and measured for 5 mins by spectrophotometric analysis.
Assay [4] has as its target Chymotrypsinogen A (Bos taurus) (UniProt P00766). In words: Inhibition of bovine pancreas alpha-chymotrypsin at concentration of 6 uM using SPpNA as substrate treated with enzyme for 30 mins following enzyme incubation with 0.7 to 2.1 M DMSO for 5 mins followed by substrate addition and measured for 12 mins by DMSO-perturbation assay.
The test system of assay [5] is Bacillus cereus. Nature of the assay: Inhibition of Bacillus cereus 569/H9 beta-lactamase incubated for 10 mins followed by nitrocefin substrate challenge and measured for 5 mins by spectrophotometric analysis.
Assay [6] has as its target Chymotrypsinogen A (Bos taurus) (UniProt P00766). The description is as §1.
The test system of assay [7] is Bacillus cereus. In words: Inhibition of Bacillus cereus 569/H9 beta-lactamase treated with enzyme for 10 mins following enzyme incubation with 0.7 to 2.1 M DMSO for 5 mins followed by nitrocefin substrate challenge and measured for 5 mins by DMSO-perturbation assay.
Assay [8] concerns the target T2, Beta-lactamase. Nature of the assay: Inhibition of Enterobacter cloacae beta-lactamase incubated for 10 mins followed by nitrocefin substrate challenge and measured for 5 mins in presence of Triton X-100 by spectrophotometric analysis.
Assay [9] deals with Chymotrypsinogen A (Bos taurus) (UniProt P00766). Nature of the assay: Inhibition of alpha-chymotrypsin in bovine pancreas at 300 uM using SPpNA as substrate pretreated with enzyme for 30 mins followed by substrate addition and measured for 12 mins by spectrophotometric analysis relative to control.
For assay [10], the target named is Beta-lactamase (Enterobacter cloacae) (UniProt P05364). Nature of the assay: (§2) Inhibition of Enterobacter cloacae beta-lactamase incubated for 10 mins followed by nitrocefin substrate challenge and measured for 5 mins in presence of 1 mM DTT by spectrophotometric analysis.
Assay [11] concerns the target T2, Beta-lactamase. Described as §2.
Assay [12] is described as follows: Drug metabolism in DMSO-d6/potassium phosphate buffer assessed as drug recovery with small amount of metabolite formation by 1H-NMR analysis.
Assay [13] deals with Chymotrypsinogen A (Bos taurus) (UniProt P00766). In words: Inhibition of bovine pancreas alpha-chymotrypsin at concentration of 6 nM using SAAPPpNA as substrate treated with enzyme for 30 mins following enzyme incubation with 0.7 to 2.1 M DMSO for 5 mins followed by substrate addition and measured for 12 mins by DMSO-perturbation assay.
Assay [14] has as its target Beta-lactamase (Enterobacter cloacae) (UniProt P05364). In words: Inhibition of Enterobacter cloacae beta-lactamase at 200 uM incubated for 10 mins followed by nitrocefin substrate challenge and measured for 5 mins in presence of 1 mM DTT by spectrophotometric analysis relative to control.
The target is the same in assay [15]. In words: Inhibition of Enterobacter cloacae beta-lactamase at 500 uM incubated for 10 mins followed by nitrocefin substrate challenge and measured for 5 mins by spectrophotometric analysis relative to control.

Activity calls are given as the source filed them. No cut-off for these calls is given here.

Chain of Beta-lactamase (Enterobacter cloacae) (P05364 21-381 limits assumed): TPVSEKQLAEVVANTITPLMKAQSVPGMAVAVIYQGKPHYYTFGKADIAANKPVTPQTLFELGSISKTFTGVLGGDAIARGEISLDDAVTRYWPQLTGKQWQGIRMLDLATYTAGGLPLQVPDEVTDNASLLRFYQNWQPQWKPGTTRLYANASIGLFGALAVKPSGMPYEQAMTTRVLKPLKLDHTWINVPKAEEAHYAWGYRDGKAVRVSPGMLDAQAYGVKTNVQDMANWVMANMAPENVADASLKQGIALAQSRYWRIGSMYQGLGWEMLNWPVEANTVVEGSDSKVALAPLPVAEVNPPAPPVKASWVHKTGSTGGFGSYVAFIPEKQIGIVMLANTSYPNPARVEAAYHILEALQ
T2 sequence (P05364 whole entry): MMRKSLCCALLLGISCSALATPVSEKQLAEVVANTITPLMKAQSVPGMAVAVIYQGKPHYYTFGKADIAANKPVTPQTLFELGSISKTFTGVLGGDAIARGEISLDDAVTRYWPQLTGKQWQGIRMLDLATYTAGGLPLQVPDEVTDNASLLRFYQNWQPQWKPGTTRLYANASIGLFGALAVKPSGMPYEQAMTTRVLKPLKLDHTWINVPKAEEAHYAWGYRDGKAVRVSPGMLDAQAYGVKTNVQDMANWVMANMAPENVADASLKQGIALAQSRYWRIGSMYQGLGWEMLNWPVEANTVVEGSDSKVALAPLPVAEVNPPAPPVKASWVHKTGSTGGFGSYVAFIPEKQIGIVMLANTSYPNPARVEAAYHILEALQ

The IC50 is the point on the concentration scale where inhibition reaches its midpoint. On to `O=c1cc(-c2ccc(O)c(O)c2)oc2ccccc12`, for which the IC50 on Chymotrypsinogen A [1] is 270 µM; on Chymotrypsinogen A [2] (read-out: IC50), 226 µM; at Beta-lactamase [3], “Nd(Insoluble)”.

One may read the inhibition as the share of the control response that was lost under treatment. For the compound `CC(C)C[C@@H](N)C(=O)N[C@@H](Cc1ccccc1)C(=O)NCc1ccc(F)cc1`, in [4], the inhibition entry was “Active”.

With `CC1(C)[C@@H](O[C@H]2O[C@H](C(=O)O)[C@@H](O)[C@H](O)[C@H]2O[C@@H]2O[C@H](C(=O)O)[C@@H](O)[C@H](O)[C@H]2O)CC[C@]2(C)[C@H]3C(=O)C=C4[C@@H]5C[C@@](C)(C(=O)O)CC[C@]5(C)CC[C@@]4(C)[C@]3(C)CC[C@@H]12`, the inhibition result with Bacillus cereus [5] is “inactive”.

With `CCCCCCCCCCCCCCCC(=O)OC[C@H](O)[C@H]1OC(=O)C(O)=C1O`, the inhibition entry (with Bacillus cereus [5]; in [6]) was “inactive” in each case.

As for `COc1ccc2c(c1)c(CC(=O)O)c(C)n2C(=O)c1ccc(Cl)cc1`, the inhibition result (in the assay on Bacillus cereus [5]; in [6]) was “inactive” each time.

`O=C(O)[C@H]1/C(=C/CO)O[C@@H]2CC(=O)N21`: the inhibition entry in the assay on Bacillus cereus [7] is “Active”.

`O=C(O)[C@H]1O[C@@H](Oc2cc3oc(-c4ccccc4)cc(=O)c3c(O)c2O)[C@H](O)[C@@H](O)[C@@H]1O`: the inhibition entry in the assay on Bacillus cereus [5] was “inactive”.

Turning to `O=C(O)c1cc(=O)c2c(OCC(O)COc3cccc4oc(C(=O)O)cc(=O)c34)cccc2o1`, the inhibition result (with Bacillus cereus [5]; in assay [6]) was “inactive” in each case.

Regarding `O=C(O[C@@H]1Cc2c(O)cc(O)cc2O[C@@H]1c1cc(O)c(O)c(O)c1)c1cc(O)c(O)c(O)c1`, the inhibition result in the assay with Bacillus cereus [5] is “inactive”.

As for `Oc1cc(O)c2c(c1)O[C@H](c1ccc(O)c(O)c1)[C@H](O)C2`, the inhibition result in the assay on Bacillus cereus [5] is “inactive”.

`CC1(C)S[C@@H]2[C@H](NC(=O)Cc3ccccc3)C(=O)N2[C@H]1C(=O)O` [PENICILLIN G SODIUM]: the IC50 on Beta-lactamase [3] (read-out: IC50) amounted to 7.2 µM; on Beta-lactamase [8], 3.6 µM.

Regarding `O=C(CCc1ccc(O)cc1)c1c(O)cc(O)cc1O` [PHLORETIN], in assay [9], the inhibition stood at 9.9%. The inhibition entry in assay [10] was “Active”. Also, the IC50 on Chymotrypsinogen A [2] (read-out: IC50) is over 300 µM; on Beta-lactamase [3] (read-out: IC50), 496 µM.

Take `O=c1c(O)c(-c2ccc(O)c(O)c2)oc2cc(O)cc(O)c12` [QUERCETIN]: the inhibition result in [4] and in assay [13] was “Active” in each case. The results for the IC50 on Beta-lactamase [11], on Beta-lactamase [3] (read-out: IC50) and on Beta-lactamase [8] were 224 µM, 85 µM and over 500 µM, respectively. In addition, the Drug metabolism result in [12] is “Metabolite detected”.

`CC(=O)c1c(O)c(C)c(O)c(Cc2c(O)c3c(c(C(=O)/C=C/c4ccccc4)c2O)OC(C)(C)C=C3)c1O` [ROTTLERIN]: in [14], the inhibition is under 50%. Moreover, the Drug metabolism entry in assay [12] was “Metabolite detected”. Also, the half-inhibitory concentration (IC50) entry at Chymotrypsinogen A [2] was “Nd(Insoluble)”; on Beta-lactamase [3] (read-out: IC50), 96 µM; at Beta-lactamase [8], 142 µM.

With `C[C@@H]1O[C@@H](OC[C@H]2O[C@@H](Oc3c(-c4ccc(O)c(O)c4)oc4cc(O)cc(O)c4c3=O)[C@H](O)[C@@H](O)[C@@H]2O)[C@H](O)[C@H](O)[C@H]1O` [RUTIN], in assay [4], the inhibition entry was “Active”. The inhibition in [15] amounted to 15%. Besides, the values for the IC50 on Chymotrypsinogen A [1], on Chymotrypsinogen A [2] (read-out: IC50) and at Beta-lactamase [3] (read-out: IC50) were 281 µM, 296 µM and over 500 µM, respectively.

The values are drawn from ChEMBL document CHEMBL4304766, “DMSO-Perturbing Assay for Identifying Promiscuous Enzyme Inhibitors” (ACS Med Chem Lett, 2019).
